# From ChEMBL document CHEMBL1201862, “PubChem BioAssay data set” (2004)
#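 Protocol summary: plate cells (96-well), add compound at 5 concentrations, incubate 48 h, interpolate endpoints linearly. The concentration for 50% growth inhibition is given as GI50.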 Active and inactive are the calls of the source. No stated cut-off is given here; in the data, active = GI50 up to about 1.1 µM and inactive = higher.
# Columns and labels:
# Test in all cases: NCI-60 cell line screen, 48 h
# RXF 393 = system: RXF 393
# SK-OV-3 = system: SK-OV-3
# HCT-15 = system: HCT-15
# OVCAR-4 = system: OVCAR-4
# UACC-62 = system: UACC-62
# SW-620 = system: SW-620
# LOX IMVI = system: LOX IMVI
# HCC 2998 = system: HCC 2998
# SK-MEL-2 = system: SK-MEL-2
# 786-0 = system: 786-0
# CAKI-1 = system: CAKI-1
# ACHN = system: ACHN
# RPMI-8226 = system: RPMI-8226
# CCRF-CEM = system: CCRF-CEM
# NCI-H522 = system: NCI-H522
# MDA-MB-231 = system: MDA-MB-231
# NCI/ADR-RES = system: NCI/ADR-RES
# T47D = system: T47D
# SK-MEL-28 = system: SK-MEL-28
# NCI-H460 = system: NCI-H460
SMILES,GI50 (RXF 393),GI50 (SK-OV-3),GI50 (HCT-15) [µM],GI50 (OVCAR-4),GI50 (UACC-62),GI50 (SW-620),GI50 (LOX IMVI),GI50 (HCC 2998),GI50 (SK-MEL-2),GI50 (786-0),GI50 (CAKI-1),GI50 (ACHN),GI50 (RPMI-8226),GI50 (CCRF-CEM),GI50 (NCI-H522),GI50 (MDA-MB-231),GI50 (NCI/ADR-RES),GI50 (T47D),GI50 (SK-MEL-28),GI50 (NCI-H460)
CCOC(=O)/C(=C/Nc1c(C)n(C)n(-c2ccccc2)c1=O)C(C)=O,> 100 µM (inactive),> 100 µM (inactive),> 100,> 100 µM (inactive),> 100 µM (inactive),> 100 µM (inactive),> 100 µM (inactive),> 100 µM (inactive),> 100 µM (inactive),> 100 µM (inactive),> 100 µM (inactive),> 100 µM (inactive),> 100 µM (inactive),> 100 µM (inactive),> 100 µM (inactive),> 100 µM (inactive),> 100 µM (inactive),–,–,–
CCOc1cc(NC(C)=O)ccc1C(=O)NN1C(=O)/C(=C/c2ccco2)N=C1c1ccccc1,> 100 µM (inactive),> 100 µM (inactive),> 100,> 100 µM (inactive),> 100 µM (inactive),> 100 µM (inactive),> 100 µM (inactive),> 100 µM (inactive),> 100 µM (inactive),> 100 µM (inactive),> 100 µM (inactive),> 100 µM (inactive),15.1 µM (inactive),> 100 µM (inactive),24.9 µM (inactive),–,> 100 µM (inactive),> 100 µM (inactive),> 100 µM (inactive),> 100 µM (inactive)
COc1ccc(Oc2nc3c(N)cc(C(F)(F)F)cc3nc2-c2ccccc2)cc1,11.6 µM (inactive),13.3 µM (inactive),31.6,> 100 µM (inactive),31.4 µM (inactive),58.1 µM (inactive),17.3 µM (inactive),38.8 µM (inactive),12.2 µM (inactive),20.5 µM (inactive),21.8 µM (inactive),28.2 µM (inactive),63 µM (inactive),38.4 µM (inactive),–,24.8 µM (inactive),27.2 µM (inactive),8.04 µM (inactive),85.9 µM (inactive),21.8 µM (inactive)
NC(c1ccccc1)(C(F)(F)F)P1(=O)OC(=O)c2ccccc2O1 (centres undefined),> 100 µM (inactive),26.9 µM (inactive),> 100,> 100 µM (inactive),> 100 µM (inactive),> 100 µM (inactive),–,> 100 µM (inactive),> 100 µM (inactive),> 100 µM (inactive),> 100 µM (inactive),> 100 µM (inactive),> 100 µM (inactive),–,–,> 100 µM (inactive),> 100 µM (inactive),> 100 µM (inactive),> 100 µM (inactive),> 100 µM (inactive)
CCCCN(CCCC)CC(O)c1cc(-c2ccc(Cl)c(Cl)c2)nc2c(Cl)cc(Cl)cc12 (centres undefined),–,> 100 µM (inactive),45.1,> 100 µM (inactive),> 100 µM (inactive),15.6 µM (inactive),88.1 µM (inactive),16.2 µM (inactive),> 100 µM (inactive),> 100 µM (inactive),–,89.1 µM (inactive),37.1 µM (inactive),65.3 µM (inactive),–,7.64 µM (inactive),> 100 µM (inactive),37.2 µM (inactive),> 100 µM (inactive),> 100 µM (inactive)
CC1(C)Cc2ccccc2C(C)(Cl)C(=O)N1 (centres undefined),> 10 µM (inactive),–,> 10,> 10 µM (inactive),> 10 µM (inactive),> 10 µM (inactive),–,> 10 µM (inactive),–,> 10 µM (inactive),> 10 µM (inactive),> 10 µM (inactive),> 10 µM (inactive),> 10 µM (inactive),–,> 10 µM (inactive),> 10 µM (inactive),> 10 µM (inactive),> 10 µM (inactive),> 10 µM (inactive)
CN/N=C(/C=C/c1ccccc1)C(C)C,> 100 µM (inactive),> 100 µM (inactive),> 100,> 100 µM (inactive),> 100 µM (inactive),> 100 µM (inactive),> 100 µM (inactive),> 100 µM (inactive),> 100 µM (inactive),> 100 µM (inactive),> 100 µM (inactive),> 100 µM (inactive),> 100 µM (inactive),> 100 µM (inactive),73.3 µM (inactive),–,> 100 µM (inactive),86.3 µM (inactive),> 100 µM (inactive),> 10 µM (inactive)
CCOC(=O)CCC(C(=O)OCC)n1nnc2cc(Nc3c(C)[n+]([O-])c4ccc(Cl)cc4[n+]3[O-])ccc21 (centres undefined),57.9 µM (inactive),> 100 µM (inactive),53.7,79.8 µM (inactive),63.5 µM (inactive),> 100 µM (inactive),52.2 µM (inactive),–,99.1 µM (inactive),98.4 µM (inactive),57 µM (inactive),60.7 µM (inactive),47.2 µM (inactive),39.4 µM (inactive),> 100 µM (inactive),–,47.1 µM (inactive),39.9 µM (inactive),–,39.1 µM (inactive)
C=C(Cl)C(C)(Cl)CCC(Br)C(C)(C)Cl (centres undefined),13.9 µM (inactive),12.7 µM (inactive),–,16.2 µM (inactive),14.9 µM (inactive),16.9 µM (inactive),13.3 µM (inactive),19.5 µM (inactive),19.3 µM (inactive),17.5 µM (inactive),25.4 µM (inactive),17.5 µM (inactive),13.2 µM (inactive),19.4 µM (inactive),11.2 µM (inactive),15.2 µM (inactive),29.4 µM (inactive),–,21.2 µM (inactive),26 µM (inactive)
CCOC(=O)c1c(C)n(Cc2ccccc2)c2c1cc(O)c1[nH]c3c(c12)CCCC3,–,10.3 µM (inactive),2.2,1.07 µM (active),1.9 µM (inactive),3.65 µM (inactive),4.85 µM (inactive),–,2.31 µM (inactive),16.1 µM (inactive),10.6 µM (inactive),11.3 µM (inactive),2.14 µM (inactive),2.37 µM (inactive),1.16 µM (inactive),5.35 µM (inactive),4.72 µM (inactive),2.03 µM (inactive),5.18 µM (inactive),2.82 µM (inactive)
Cc1nn(C(=O)Cc2ccccc2)c2c1C(c1ccc(N(C)C)cc1)SC(=N)N2 (centres undefined),–,> 100 µM (inactive),> 100,–,45.6 µM (inactive),> 100 µM (inactive),> 100 µM (inactive),> 100 µM (inactive),–,> 100 µM (inactive),> 100 µM (inactive),> 100 µM (inactive),> 100 µM (inactive),> 100 µM (inactive),> 100 µM (inactive),> 100 µM (inactive),–,> 100 µM (inactive),> 100 µM (inactive),> 100 µM (inactive)
CC(C)CCCC(C)[C@H]1CC[C@H]2N/C(=N/Cc3ccccc3)CCC[C@]12C (some centres undefined),1.53 µM (inactive),5.31 µM (inactive),1.67,1.98 µM (inactive),1.83 µM (inactive),1.91 µM (inactive),1.92 µM (inactive),–,1.97 µM (inactive),2 µM (inactive),2.25 µM (inactive),–,1.59 µM (inactive),2.13 µM (inactive),–,2.05 µM (inactive),1.65 µM (inactive),2.83 µM (inactive),1.47 µM (inactive),1.66 µM (inactive)
Nc1nnnn1CCO,> 100 µM (inactive),> 100 µM (inactive),> 100,> 100 µM (inactive),> 100 µM (inactive),> 100 µM (inactive),> 100 µM (inactive),–,> 100 µM (inactive),> 100 µM (inactive),> 100 µM (inactive),> 100 µM (inactive),> 100 µM (inactive),–,> 100 µM (inactive),> 100 µM (inactive),> 100 µM (inactive),> 100 µM (inactive),> 100 µM (inactive),> 100 µM (inactive)
OC1CSc2nc3ccccc3n2C1 (centres undefined),> 100 µM (inactive),> 100 µM (inactive),> 100,–,> 100 µM (inactive),> 100 µM (inactive),> 100 µM (inactive),> 100 µM (inactive),–,> 100 µM (inactive),> 100 µM (inactive),> 100 µM (inactive),> 100 µM (inactive),> 100 µM (inactive),–,> 100 µM (inactive),> 100 µM (inactive),> 100 µM (inactive),–,> 100 µM (inactive)
COc1cc(/N=N/N(C)C)c(C(C)c2c3cc(OC)c(OC)cc3cc[n+]2C)cc1OC (centres undefined),17.6 µM (inactive),> 100 µM (inactive),> 100,51.9 µM (inactive),25.1 µM (inactive),85.7 µM (inactive),25.2 µM (inactive),34.6 µM (inactive),24.9 µM (inactive),51.8 µM (inactive),> 100 µM (inactive),> 100 µM (inactive),7.76 µM (inactive),37.3 µM (inactive),–,26.3 µM (inactive),> 100 µM (inactive),23.4 µM (inactive),–,30.8 µM (inactive)
NNC(=O)COc1nc(-c2cccs2)nc2ccc(I)cc12,34.3 µM (inactive),20.6 µM (inactive),20.7,21.4 µM (inactive),19.8 µM (inactive),34.5 µM (inactive),17.6 µM (inactive),20 µM (inactive),24.5 µM (inactive),25.5 µM (inactive),17.6 µM (inactive),22.5 µM (inactive),–,–,18.7 µM (inactive),–,28.1 µM (inactive),1.47 µM (inactive),24.8 µM (inactive),21.8 µM (inactive)
